Consider twelve compounds from patent US20150005288A1, “SUBSTITUTED PHENYLIMIDAZOPYRAZOLES AND USE THEREOF” (Bayer Intellectual Property GmbH, priority 2012, published 2015).

T1 sequence (Q02763 776-1124): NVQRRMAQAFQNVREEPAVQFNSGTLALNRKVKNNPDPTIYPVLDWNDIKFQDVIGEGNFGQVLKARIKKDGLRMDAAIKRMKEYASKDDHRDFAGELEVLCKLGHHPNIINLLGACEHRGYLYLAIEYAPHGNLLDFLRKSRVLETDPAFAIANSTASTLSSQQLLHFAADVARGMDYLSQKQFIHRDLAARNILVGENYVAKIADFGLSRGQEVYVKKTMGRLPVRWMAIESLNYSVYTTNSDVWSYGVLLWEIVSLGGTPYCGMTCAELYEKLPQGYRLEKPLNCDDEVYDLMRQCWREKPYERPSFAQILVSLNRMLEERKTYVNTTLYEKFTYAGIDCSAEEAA

The experiment concerns the target T1, intracellular domain of human Tie2 (GST fusion protein) (Homo sapiens, UniProt Q02763).
T1 construct: intracellular domain of human Tie2 (amino acids 776-1124); made in house; host or cells: Baculovirus-infected insect cells (Hi5)
In words: Tie2 kinase assay (Tie2-TR-FRET). It is filed as biochemical. Particulars: ATP concentration 1 mM, in some cases means of several independent determinations. The protocol: The Tie2-inhibitory activity of the substances according to the invention was determined with the aid of one of the Tie2-TR-FRET assays described in the sections below at an ATP concentration of 1 mM (TR-FRET=Time-Resolved Fluorescence Resonance Energy Transfer):
The enzyme used was a recombinant fusion protein of glutathione S-transferase (GST) and the intracellular domain of human Tie2 (amino acids 776-1124) which was expressed in Baculovirus-infected insect cells (Hi5) and was purified by affinity chromatography on glutathione-Sepharose. Alternatively, it is also possible to use commercially available GST-His6-Tie2 fusion protein (ProQinase GmbH, Freiburg im Breisgau, Germany). The substrate used for the kinase reaction was the biotinylated peptide biotin-Ahx-[…] (C-terminus in amide form) which is commercially available (for example from Biosyntan, Berlin, Germany).
For the assay, 50 nl of a 100-fold concentrated solution of the respective test substance in DMSO were pipetted into a black low-volume 384-well microtitre plate (Greiner Bio-One, Frickenhausen, Germany) 2 μl of a solution of the Tie2 fusion protein in assay buffer [50 mM HEPES/HCl pH 7, 10 mM MgCl2, 2.5 mM MnCl2, 1 mM dithiothreitol, 0.01% (v/v) Nonidet P-40, 0.1% (w/v) bovine serum albumin (BSA), 1× Complete EDTA-free protease inhibitor mixture (Roche)] were added, and the mixture was incubated for 15 min to allow pre-binding of the substance to the enzyme prior to the kinase reaction. The kinase reaction was then started by adding 3 μl of a solution of adenosine triphosphate (ATP, 1.67 mM→final concentration in 5 μl assay volume=1 mM) and substrate (1.67 μM→final concentration in 5 μl assay volume=1 μM) in assay buffer, and the resulting mixture was incubated for a reaction time of 60 min at 22° C. The concentration of the Tie2 fusion protein was adapted to the respective activity of the enzyme and adjusted such that the assay was carried out in the linear range. Typical concentrations were in the range of 30 ng/ml.
The reaction was stopped by addition of 5 μl of a solution of TR-FRET detection reagents [200 nM streptavidin-XL665 and 2 nM PT66-Eu chelate, a europium chelate-labelled anti-phosphotyrosine antibody (Perkin-Elmer); alternatively, it is also possible to use PT66-Tb cryptate (Cisbio Bioassays, Codolet, France)] in aqueous EDTA solution[90 mM EDTA, 0.28% (w/v) bovine serum albumin (BSA) in 50 mM HEPES pH 7.5]. The resulting mixture was incubated at 22° C. for 1 h to allow formation of the complex of the biotinylated phosphorylated substrate and the detection reagents. The amount of phosphorylated substrate was then determined by measuring the resonance energy transfer from PT66-Eu chelate to streptavidin-XL665. To this end, the fluorescence emissions at 620 nm and 665 nm after excitation at 350 nm were measured in a TR-FRET measuring instrument (for example Viewlux, Perkin-Elmer). The ratio of the emissions at 665 nm and at 620 nm was taken as a measure of the amount of phosphorylated substrate.
Usually, the test substance in question was tested on the same microtitre plate at […] different concentrations in the range from 20 μM to 0.073 nM (for example at 20 μM, 5.7 μM, 1.6 μM, 0.47 μM, 0.13 μM, 38 nM, 11 nM, 3.1 nM, 0.89 nM, 0.25 nM and 0.073 nM) in duplicate for each concentration. The dilution series were prepared prior to the assay at the stage of the 100-fold concentrated solution by serial dilution (the exact concentrations may vary depending on the pipettors used in each case). IC50 values were calculated using a 4-parameter fit, with the aid of inhouse software.
Table 1 below lists the IC50 values from this assay for individual working examples (in some cases as means of several independent individual determinations): […]
For the compound `Cc1ccc(NC(=O)c2cc(C#N)cc(C(C)(C)C)c2)cc1-n1ccn2nc(-c3cccnc3)cc12` [Example 50, 3-tert-Butyl-5-cyano-N-{4-methyl-3-[6-(pyridin-3-yl)-1H-imidazo[1,2-b]pyrazol-1-yl]phenyl}-benzamide], the IC50 – broadly, the midpoint of a concentration-inhibition curve – was 1.2 nM.
`Cc1cc(C)c(-n2ccn3nc(-c4cccnc4)cc23)cc1NC(=O)c1cccc(OC(F)(F)C(F)F)c1` [Example 129, N-{2,4-Dimethyl-5-[6-(pyridin-3-yl)-1H-imidazo[1,2-b]pyrazol-1-yl]phenyl}-3-(1,1,2,2-tetra-fluoroethoxy)benzamide] displayed an IC50 of 3.2 nM.
Regarding `COc1cc(OC)cc(C(=O)Nc2ccc(C)c(-n3ccn4nc(-c5cccnc5)cc34)c2)c1` [Example 63, 3,5-Dimethoxy-N-{4-methyl-3-[6-(pyridin-3-yl)-1H-imidazo[1,2-b]pyrazol-1-yl]phenyl}benzamide], the IC50 was 770 nM.
For `Cc1ccc(NC(=O)c2cccc(OCC(C)C)c2)cc1-n1ccn2nc(-c3cccnc3)cc12` [Example 62, 3-(2-Methylpropoxy)-N-{4-methyl-3-[6-(pyridin-3-yl)-1H-imidazo[1,2-b]pyrazol-1-yl]phenyl}-benzamide], the IC50 stood at 500 nM.
Compound `Cc1ccc(NC(=O)c2cc(C#N)cc(S(F)(F)(F)(F)F)c2)c(O)c1-n1ccn2nc(-c3cccnc3)cc12` [Example 156, 3-Cyano-N-{2-hydroxy-4-methyl-3-[6-(pyridin-3-yl)-1H-imidazo[1,2-b]pyrazol-1-yl]phenyl}-5-(pentafluoro-λ^6-sulphanyl)benzamide] gave an IC50 of 5.9 nM.
Regarding `Cc1ccc(NC(=O)c2cc(C#N)cc(OC(F)(F)F)c2)cc1-n1ccn2nc(-c3cccnc3)cc12` [Example 38, 3-Cyano-N-{4-methyl-3-[6-(pyridin-3-yl)-1H-imidazo[1,2-b]pyrazol-1-yl]phenyl}-5-(trifluoromethoxy)benzamide], half-maximal inhibition (IC50) was put at 15 nM.
In turn, `Cc1ccc(NC(=O)c2cc(Br)cc(S(F)(F)(F)(F)F)c2)cc1-n1ccn2nc(-c3cccnc3)cc12` [Example 89, 3-Bromo-N-{4-methyl-3-[6-(pyridin-3-yl)-1H-imidazo[1,2-b]pyrazol-1-yl]phenyl}-5-(pentafluoro-λ^6-sulphanyl)benzamide] displayed an IC50 of 2.3 nM.
Compound `Cc1ccc(NC(=O)c2cccc(S(F)(F)(F)(F)F)c2)cc1-n1ccn2nc(-c3cncnc3)cc12` [Example 163, N-{4-Methyl-3-[6-(pyrimidin-5-yl)-1H-imidazo[1,2-b]pyrazol-1-yl]phenyl}-3-(pentafluoro-λ^6-sulphanyl)benzamide] showed an IC50 of 8.9 nM.
`Cc1ccc(NC(=O)c2ccnc(N3CCCC3)c2)cc1-n1ccn2nc(-c3cccnc3)cc12` [Example 67, N-{4-Methyl-3-[6-(pyridin-3-yl)-1H-imidazo[1,2-b]pyrazol-1-yl]phenyl}-2-(pyrrolidin-1-yl)-pyridine-4-carboxamide] showed an IC50 of 57 nM.
With `Cc1ccc(NC(=O)c2cccc(C(F)(F)F)c2)cc1-n1ccn2nc(-c3cn[nH]c3)cc12` [Example 5, N-{4-Methyl-3-[6-(1H-pyrazol-4-yl)-1H-imidazo[1,2-b]pyrazol-1-yl]phenyl}-3-(trifluoromethyl)-benzamide] the figure was 380 nM.
Turning to `Cc1ccc(NC(=O)c2cc(Cl)nc(C(C)(C)C)c2)cc1-n1ccn2nc(-c3cccnc3)cc12` [Example 65, 2-tert-Butyl-6-chloro-N-{4-methyl-3-[6-(pyridin-3-yl)-1H-imidazo[1,2-b]pyrazol-1-yl]phenyl}isonicotinamide], the IC50 came to 57 nM.
`COC1CCN(c2cc(C(=O)Nc3cc(-n4ccn5nc(-c6cccnc6)cc45)c(C)cc3C)cc(S(F)(F)(F)(F)F)c2)CC1` [Example 145, N-{2,4-Dimethyl-5-[6-(pyridin-3-yl)-1H-imidazo[1,2-b]pyrazol-1-yl]phenyl}-3-(4-methoxypiperidin-1-yl)-5-(pentafluoro-λ^6-sulphanyl)benzamide] yielded an IC50 of 0.9 nM.
